Like-named read-outs stand apart in the source and are kept apart here.
Tests used:
OCI-LY10 = assay: CTG Cell Viability Assay - OCI-LY10; format: cell-based, human; conditions: OCI-LY10, 4 days, read-out: CTG Cell Viability Assay - OCI-LY10: Average external-IC50
How it was run: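 Viability read by CellTiter-Glo luminescence after 4 days at 37° C under 5% CO2 with compound (top 10 μM final, 1:3 steps, 9 doses, DMSO 0.2%). Three-parameter logistic fit gave IC50.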

IRAK4 = IRAK4 (Homo sapiens (Human), UniProt Q9NWZ3); assay: IRAK4 MSD degradation in OCI-LY10; format: cell-based
Chain of IRAK4 (Q9NWZ3 whole entry): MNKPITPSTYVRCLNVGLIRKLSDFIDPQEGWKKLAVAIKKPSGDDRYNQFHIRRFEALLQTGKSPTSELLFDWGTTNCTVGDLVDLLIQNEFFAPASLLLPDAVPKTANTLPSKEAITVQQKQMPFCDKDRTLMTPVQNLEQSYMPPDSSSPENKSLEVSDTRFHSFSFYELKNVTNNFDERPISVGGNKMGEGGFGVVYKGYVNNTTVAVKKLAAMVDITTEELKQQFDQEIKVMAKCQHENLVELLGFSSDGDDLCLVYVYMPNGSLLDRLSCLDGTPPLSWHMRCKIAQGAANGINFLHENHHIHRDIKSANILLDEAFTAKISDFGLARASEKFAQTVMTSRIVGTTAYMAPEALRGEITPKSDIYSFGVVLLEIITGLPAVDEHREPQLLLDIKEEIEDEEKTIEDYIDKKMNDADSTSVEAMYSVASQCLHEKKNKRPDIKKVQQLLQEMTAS
How it was run: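 Remaining IRAK4 quantified by electrochemiluminescent MSD sandwich assay with two anti-IRAK4 antibodies. Compounds were dosed as 8 concentrations in 1:3 steps from a 1 to 10 μM final top on OCI-LY10 cells, incubated 4 to 24 h at 37° C. under 5% CO2. DC50 fitted with a three-parameter logistic curve.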

[1] = OCI-LY10, 4 hrs, read-out: IRAK4 MSD degradation in OCI-LY10 at 4 hrs: DC50
[2] = OCI-LY10, 24 hrs, read-out: IRAK4 MSD degradation in OCI-LY10 at 24 hrs: DC50
[3] = OCI-LY10, 4 hrs, MSD, read-out: IRAK4 MSD degradation in OCI-LY10 at 4 hrs: Average external-Abs DC50
[4] = OCI-LY10, 24 hrs, MSD, read-out: IRAK4 MSD degradation in OCI-LY10 at 24 hrs: Average external-Abs DC50

Row | SMILES | IC50 (OCI-LY10; Homo sapiens, OCI-Ly10, 96 h) [nM] | DC50 (IRAK4; [1]) [nM] | DC50 (IRAK4; [2]) [nM] | DC50 (IRAK4; [3]) [nM] | DC50 (IRAK4; [4]) [nM] | IC50 (OCI-LY10) [nM]
1 | O=C1CCC(N2C(=O)c3cccc(NCCCOCCCN4CCN(c5ncc(-n6cc(NC(=O)c7cnn8ccc(N9CCOCC9)nc78)c(C(F)F)n6)cn5)CC4)c3C2=O)C(=O)N1 (centres unmarked) [I-456] | < 50 | 100 to 1000 | 100 to 1000 |  |  | 
2 | Cn1c(=N)n(C2CCC(=O)NC2=O)c2ccc(CCCOCCCN3CCC(n4cc(NC(=O)c5cnn6ccc(N7CCOCC7)nc56)c(C(F)F)n4)CC3)cc21 (centres unmarked) [I-179] | > 1000 |  |  | 100 to 1000 |  | 
3 | Cn1c(=O)n(C2CCC(=O)NC2=O)c2cccc(CN3CCC(O[C@H]4C[C@H](N(C)C[C@H]5CC[C@H](n6cc(NC(=O)c7coc(-c8ccnc(NCC9CC9)c8)n7)c(C(F)F)n6)CC5)C4)CC3)c21 (some centres unmarked) [I-249] | < 50 |  |  | 10 to 100 |  | 
4 | O=C1CCC(N2C(=O)c3cccc(NC4CCN(CCCNC[C@H]5CC[C@H](n6cc(NC(=O)c7cnn8ccc(N9CCOCC9)nc78)c(C(F)F)n6)CC5)CC4)c3C2=O)C(=O)N1 (some centres unmarked) [I-384] | < 50 |  |  | 10 to 100 |  | 
5 | CN(Cc1ccc(-n2cc(NC(=O)c3coc(-c4ccnc(NCC5CC5)c4)n3)c(C(F)F)n2)cc1)C1CCN(Cc2cccc3c2n(C)c(=O)n3C2CCC(=O)NC2=O)CC1 (centres unmarked) [I-389] | < 50 |  |  | 10 to 100 | 10 to 100 | 
6 | Cn1c(=O)n(C2CCC(=O)NC2=O)c2cccc(CCCOCCC(=O)N3CCN([C@H]4CC[C@H](Nc5ncnc6ccc(C#N)cc56)CC4)CC3)c21 (some centres unmarked) [I-159] | > 1000 |  |  | > 1000 | > 1000 | 
7 | CN(Cc1ccc(OCCCNc2cccc3c2C(=O)N(C2CCC(=O)NC2=O)C3=O)nc1)C[C@H]1CC[C@H](n2cc(NC(=O)c3cnn4ccc(N5CCOCC5)nc34)c(C(F)F)n2)CC1 (some centres unmarked) [I-477, N-(3-(difluoromethyl)-1-((1r,4r)-4-((((6-(3-((2-(2,6-dioxopiperidin-3-yl)-1,3-dioxoisoindolin-4-yl)amino)propoxy)pyridin-3-yl)methyl)(methyl)amino)methyl)cyclohexyl)-1H-pyrazol-4-yl)-5-morpholinopyrazolo[1,5-a] pyrimidine-3-carboxamide] | 500 to 1000 | 10 to 100 | 10 to 100 |  |  | 
8 | Cn1c(=O)n(C2CCC(=O)NC2=O)c2cccc(CN3CC4(CCN(C[C@H]5CC[C@H](n6cc(NC(=O)c7cnn8ccc(N9CCOCC9)nc78)c(C(F)F)n6)CC5)CC4)C3)c21 (some centres unmarked) [I-233] | 100 to 500 |  |  | < 10 |  | 
9 | O=C(Nc1cn([C@H]2CC[C@H](CNC[C@H]3CC[C@H](n4cc(NC(=O)c5cnn6ccc(N7CCOCC7)nc56)c(C(F)F)n4)CC3)CC2)nc1C(F)F)c1cnn2ccc(N3CCOCC3)nc12 [I-408, N-[3-(difluoromethyl)-1-[4-[[[4-[3-(difluoromethyl)-4-[(5-morpholinopyrazolo[1,5-a]pyrimidine-3-carbonyl)amino]pyrazol-1-yl]cyclohexyl]methylamino]methyl]cyclohexyl]pyrazol-4-yl]-5-morpholino-pyrazol [1,5-a] pyrimidine-3-carboxamide] | > 1000 |  |  | > 1000 | > 1000 | 
10 | CN(CCCOCCCNC(=O)c1ccc(CNCc2ccc(-c3ccc4c(cnn4CC4CC4)c3)cc2)cc1)C[C@H]1CC[C@H](n2cc(NC(=O)c3coc(-c4ccnc(NCC5CC5)c4)n3)c(C(F)F)n2)CC1 [I-131] | > 1000 |  |  | > 1000 | > 1000 | 
11 | O=C1CCC(N2C(=O)c3cccc(CNC4CC5(CCN(C[C@H]6CC[C@H](n7cc(NC(=O)c8cnn9ccc(N%10C[C@H]%11C[C@@H]%10CO%11)nc89)c(C(F)F)n7)CC6)CC5)C4)c3C2=O)C(=O)N1 (some centres unmarked) [I-360] | > 1000 |  |  | 10 to 100 |  | 
12 | O=C1CCC(N2C(=O)c3cccc(NCCOC4CCN(C[C@H]5CC[C@H](n6cc(NC(=O)c7cnn8ccc(N9CCOCC9)nc78)c(C(F)F)n6)CC5)CC4)c3C2=O)C(=O)N1 (some centres unmarked) [I-210] | > 1000 |  |  | 10 to 100 | 10 to 100 | 
13 | CN(CCCOCCCNc1cccc2c1C(=O)N(C1CCC(=O)NC1=O)C2=O)C[C@H]1CC[C@H](n2cc(NC(=O)c3cnn4ccc(NCC5CC5)nc34)c(C(F)F)n2)CC1 (some centres unmarked) [I-437] | 100 to 500 |  |  | 10 to 100 | 10 to 100 | 
14 | O=C1CCC(N2C(=O)c3cccc(NCC4CC5(CCN(C(=O)[C@H]6CC[C@H](n7cc(NC(=O)c8cnn9ccc(N%10CCNCC%10)nc89)c(C(F)F)n7)CC6)CC5)C4)c3C2=O)C(=O)N1 (some centres unmarked) [I-370] | 100 to 500 |  |  | 10 to 100 |  | 
15 | C[C@@H]1CN(c2ccn3ncc(C(=O)Nc4cn([C@H]5CC[C@H](CN6CCC(OCCCc7cccc8c7n(C)c(=O)n8C7CCC(=O)NC7=O)CC6)CC5)nc4C(F)F)c3n2)C[C@H](C)O1 (stereo partly drawn) [I-275, N-[3-(difluoromethyl)-1-[4-[[4-[3-[1-(2,6-dioxo-3-piperidyl)-3-methyl-2-oxo-benzimidazol-4-yl]propoxy]-1-piperidyl]methyl]cyclohexyl]pyrazol-4-yl]-5-[(2R,6S)-2,6-dimethylmorpholin-4-yl] pyrazolo[1,5-a] pyrimidine-3-carboxamide] | > 1000 |  |  | 10 to 100 |  | 
16 | COc1cc(C(=O)NCCOCCOCCN(C)C[C@H]2CC[C@H](n3cc(NC(=O)c4coc(-c5ccnc(NCC6CC6)c5)n4)c(C(F)F)n3)CC2)ccc1NC(=O)[C@@H]1N[C@@H](CC(C)(C)C)[C@](C#N)(c2ccc(Cl)cc2F)[C@H]1c1cccc(Cl)c1F [I-145] |  |  |  | > 1000 | > 1000 | > 1000
17 | COc1cc(C(=O)NCCCCN(C)C[C@H]2CC[C@H](n3cc(NC(=O)c4coc(-c5ccnc(NCC6CC6)c5)n4)c(C(F)F)n3)CC2)ccc1NC(=O)[C@@H]1N[C@@H](CC(C)(C)C)[C@](C#N)(c2ccc(Cl)cc2F)[C@H]1c1cccc(Cl)c1F [I-142] |  |  |  | > 1000 | > 1000 | > 1000
18 | O=C1CCC(N2C(=O)c3cccc(NCCCCCCC[C@H]4CC[C@H](n5cc(NC(=O)c6cnn7ccc(N8C[C@H]9C[C@@H]8CO9)nc67)c(C(F)F)n5)CC4)c3C2=O)C(=O)N1 (some centres unmarked) [I-354] | > 1000 |  |  | > 1000 |  | 
19 | O=C1CCC(N2C(=O)c3cccc(NCC(=O)N4CC5(CCN(C[C@H]6CC[C@H](n7cc(NC(=O)c8cnn9ccc(N%10CCOCC%10)nc89)c(C(F)F)n7)CC6)CC5)C4)c3C2=O)C(=O)N1 (some centres unmarked) [I-443] | < 50 | < 10 | < 10 |  |  | 
20 | C=C(C)c1nn([C@H]2CC[C@H](CN(C)C3CCN(Cc4cccc5c4n(C)c(=O)n5C4CCC(=O)NC4=O)CC3)CC2)cc1NC(=O)c1cnn2ccc(NCC3CC3)nc12 (some centres unmarked) [I-173] | > 1000 |  |  | 100 to 1000 |  | 
21 | CN(CCC1CCN(Cc2cccc3c2n(C)c(=O)n3C2CCC(=O)NC2=O)CC1)C[C@H]1CC[C@H](n2cc(NC(=O)c3cnn4ccc(N5C[C@H](N)CC(F)(F)C5)nc34)c(C(F)F)n2)CC1 (some centres unmarked) [I-155] | > 1000 |  |  | 10 to 100 |  | 
22 | O=C1CCC(N2C(=O)c3cccc(NC4CC5(CCN(C[C@H]6CC[C@H](n7cc(NC(=O)c8cnn9ccc(N%10C[C@H]%11C[C@@H]%10CO%11)nc89)c(C(F)F)n7)CC6)CC5)C4)c3C2=O)C(=O)N1 (some centres unmarked) [I-381] | 50 to 100 |  |  | 10 to 100 | < 10 | 
